Measured values from publication PMC1762332, “Catalases Are NAD(P)H-Dependent Tellurite Reductases” (PLoS ONE, 2006).

Columns and labels:
[1] = target: T1, E. coli katG (HPI catalase) (Escherichia coli, UniProt P13029); test: in-gel tellurite reductase activity after native PAGE of E. coli extract; absent in katG mutant; format: biochemical; settings: 1 mM K2TeO3, 1 mM NADH, 1 mM 2-mercaptoethanol, potassium phosphate pH 7, 37 °C, 12 h
T1 construct: native enzyme in extract of E. coli (Top10 with pBAD vector), resolved on native gel; tetramer; band absent in katG mutant

[2] = target: T2, S. epidermidis CH katA (catalase) (Staphylococcus epidermidis, UniProt Q2PUJ9); test: in-gel tellurite reductase activity after native PAGE of recombinant E. coli extract; format: biochemical; settings: 1 mM K2TeO3, 1 mM NADH, 1 mM 2-mercaptoethanol, potassium phosphate pH 7, 37 °C, 12 h
T2 construct: katA coding region (1,515 bp) in pBAD (plasmid pCAT), expressed in E. coli Top10, extract; about 60 kDa subunit; homolog of SE1016 of ATCC12228
T2 sequence (Q2PUJ9 3-504): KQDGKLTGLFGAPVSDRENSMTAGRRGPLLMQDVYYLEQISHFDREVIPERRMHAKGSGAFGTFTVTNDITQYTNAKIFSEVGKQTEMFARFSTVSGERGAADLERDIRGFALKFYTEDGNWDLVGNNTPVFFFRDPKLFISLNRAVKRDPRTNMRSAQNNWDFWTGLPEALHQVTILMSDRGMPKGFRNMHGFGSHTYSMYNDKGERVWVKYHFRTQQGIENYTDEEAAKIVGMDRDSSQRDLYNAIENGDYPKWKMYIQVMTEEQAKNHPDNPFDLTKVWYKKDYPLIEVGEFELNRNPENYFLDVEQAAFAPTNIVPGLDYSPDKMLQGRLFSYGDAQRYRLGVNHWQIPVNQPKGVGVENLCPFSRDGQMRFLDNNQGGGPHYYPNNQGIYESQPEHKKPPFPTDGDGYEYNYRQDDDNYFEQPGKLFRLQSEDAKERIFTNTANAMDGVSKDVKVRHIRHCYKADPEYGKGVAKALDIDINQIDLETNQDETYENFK

T1 sequence (P13029 whole entry): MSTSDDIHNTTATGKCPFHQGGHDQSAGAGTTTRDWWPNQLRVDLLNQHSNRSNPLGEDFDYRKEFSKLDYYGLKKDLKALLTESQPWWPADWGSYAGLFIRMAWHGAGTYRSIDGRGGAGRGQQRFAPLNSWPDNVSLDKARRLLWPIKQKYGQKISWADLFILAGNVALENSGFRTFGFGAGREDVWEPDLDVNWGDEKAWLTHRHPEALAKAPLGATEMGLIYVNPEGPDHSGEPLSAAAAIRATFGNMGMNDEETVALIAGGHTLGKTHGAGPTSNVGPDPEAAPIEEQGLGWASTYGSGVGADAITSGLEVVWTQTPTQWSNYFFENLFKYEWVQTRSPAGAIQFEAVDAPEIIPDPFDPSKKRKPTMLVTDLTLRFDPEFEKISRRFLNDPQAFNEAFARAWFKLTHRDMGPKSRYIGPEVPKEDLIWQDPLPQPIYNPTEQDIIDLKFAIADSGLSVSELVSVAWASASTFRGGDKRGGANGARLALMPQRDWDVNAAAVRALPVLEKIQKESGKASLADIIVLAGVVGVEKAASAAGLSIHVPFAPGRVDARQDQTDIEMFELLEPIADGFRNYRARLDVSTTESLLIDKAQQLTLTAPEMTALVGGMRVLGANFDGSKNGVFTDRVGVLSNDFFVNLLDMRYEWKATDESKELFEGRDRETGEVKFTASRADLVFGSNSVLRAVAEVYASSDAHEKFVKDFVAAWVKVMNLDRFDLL

**Q.** Which “in-gel tellurite reductase activity after native PAGE of E. coli extract; absent” value [1] does the source give for `O=[Te](O)O` [tellurite] here?
**A.** Its value is “a barely detectable tellurite reductase activity”.

**Q.** What about the “in-gel tellurite reductase activity after native PAGE of recombinant E. coli ext” value [2] of the same molecule?
**A.** Its value is “tellurite reductase activities of catalase are expressed at more than-four fold higher levels”.
